In US11912710B2 (UPPTHERA, INC., priority 2021, dated 2024):

Experiments:
Type in all cases: cell-based
[1] = system: MRC-5 cell line; assay: Cell viability assay (cytotoxicity) for MRC-5 cell line; conditions: Homo sapiens, MRC5, 120 h; MRC-5 normal cell line, 5 days, EZ-Cytox, 10000 nM to 1.52 nM; read-out: Activity: IC50 value to MRC-5 cell line (Exemplary Compounds)
Description: 4. Cell Viability Assay for MRC-5 Cell Line
(1) Culture of MRC-5 Cell Line
Passage of cultured cells was maintained within P15.
(2) Treatment of Compounds of the Present Invention
Then, it was cultured in 37° C.
(3) Cytotoxicity Experiment
CO2 incubator for 4 hours.
Cell Viability Assay for MRC-5 cell line

[2] = system: NCI-H526 cell line; assay: Cell viability assay for H526 cell line; conditions: Homo sapiens, NCI-H526, 120 h; H526 cells, 5 days, EZ-Cytox, 3000 nM to 0.46 nM
Description: 3. Cell Viability Assay for H526 Cell Line
(1) Culture of NCI-H526 Cell Line
(2) Treatment of Compounds of the Present Invention and Method of Cell Viability Assay
After treating the compound to each well to make the total volume of 200 μL, it was cultured in a CO2 incubator (Thermo Fisher Science, Cat. No. 4111) for 5 days.
The absorbance of the completely cultured sample was measured by setting the wavelength of a plate reader (BMG Labtech, CLARIOstar Plus) to […], and was measured after shaking for 3 minutes in a plate reader before measurement.
In Table 3, Activity represents IC50 value of each Exemplary Compound treatment group to H526 cell line (A: <30 nM, B: <50 nM, C: <100 nM, D: <200 nM, E: <400 nM).

[3] = target: T1, PLK1 (Homo sapiens, UniProt P53350); assay: Luciferase assay for PLK1 in HeLa LgBit (Plk1-HiBit KI) cell line; conditions: 300 nM compound, luminescence after 9 hours, read-out: Activity: ratio of the luminescense value of compound treatment group to DMSO treatment group
T1 construct: endogenous in cells; host or cells: HeLa LgBit (Plk1-HiBit KI): HeLa cells stably expressing LgBit, with HiBit knocked into the endogenous Plk1 locus by CRISPR/Cas9
T1 sequence (P53350 whole entry): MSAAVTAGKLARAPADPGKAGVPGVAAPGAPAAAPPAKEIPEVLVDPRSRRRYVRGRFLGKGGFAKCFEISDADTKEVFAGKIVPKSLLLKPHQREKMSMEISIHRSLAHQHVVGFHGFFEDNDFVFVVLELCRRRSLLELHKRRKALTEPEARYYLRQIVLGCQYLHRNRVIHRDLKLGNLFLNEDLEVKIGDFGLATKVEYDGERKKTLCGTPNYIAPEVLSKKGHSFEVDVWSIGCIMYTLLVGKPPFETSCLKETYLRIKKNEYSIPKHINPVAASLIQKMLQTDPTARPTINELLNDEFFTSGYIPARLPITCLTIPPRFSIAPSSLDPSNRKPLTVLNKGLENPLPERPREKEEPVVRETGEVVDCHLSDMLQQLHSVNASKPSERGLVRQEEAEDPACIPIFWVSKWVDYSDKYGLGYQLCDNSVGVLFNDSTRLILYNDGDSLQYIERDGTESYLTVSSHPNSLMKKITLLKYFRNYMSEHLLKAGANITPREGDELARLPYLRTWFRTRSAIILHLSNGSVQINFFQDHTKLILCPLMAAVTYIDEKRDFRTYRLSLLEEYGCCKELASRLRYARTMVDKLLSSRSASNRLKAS
Description: 2. Luciferase Assay for PLK1
(1) Preparation and Culture of HeLa LgBit (Plk1-HiBit KI) Cell Line
A HeLa cell line in which the LgBit vector was transfected and expressed stably was prepared. Then, after constructing gRNA and donor to express the HiBit amino acid sequence behind the C-terminal of the Plk1 gene, which was inherent in the cell, it was inserted into the cell together with a vector capable of expressing CRISPR/Cas9. Only the cells in which the insertion was completed and knock-in had progressed were selected, sub-cultured and used.
(2) Treatment of Compounds of the Present Invention and Method of Luciferase Assay
In the case of HeLa LgBit (Plk1-HiBit KI), the compounds were treated after being released after thymidine block, and the process was as follows. Thymidine (Sigma-Aldrich Cat. No. T9250-5G) was completely dissolved in DW and used in the experiment. For thymidine block, the products were treated with 2 mM of thymidine and then incubated for 24 hours. For release and chemical treatment, the medium was suctioned and washed with 1×PBS. TrypLE™ was added and incubated in 37° C. CO2 incubator for 5 min. Cells neutralized by adding complete media were counted through a counter. For each well of a 96-well culture plate (SPL), 3.3×10^4 cells and a total medium volume of 150 μL were seeded and incubated in a CO2 incubator.
Each cell line was incubated in a CO2 incubator for 18 hours, and Endurazine was added to each well to make up 4% of the total volume. After adding the compound of the present invention in a 96-well white plate (SPL) to a concentration of 300 nM, the wavelength of the plate reader (BMG Labtech, CLARIOstar Plus) was set to […], and then the luminescence was tracked in real time.
In Table 2, Activity represents the ratio of the luminescense value of each Exemplary Compound treatment group to DMSO treatment group (+++: <0.3, ++<0.6, +<0.7).

COc1cc(C(=O)NC2CCCN(C(=O)CN3CCN(c4ccc(C5CCC(=O)NC5=O)cc4F)CC3)C2)ccc1Nc1ncc2c(n1)N(C1CCCC1)CC(F)(F)C(=O)N2C (stereo not drawn) [Compound 13, 4-((9-cyclopentyl-7,7-difluoro-5-methyl-6-oxo-6,7,8,9-tetrahydro-5H-pyrimido[4,5-b][1,4]diazepin-2-yl)amino)-N-(1-(2-(4-(4-(2,6-dioxopiperidin-3-yl)-2-fluorophenyl)piperazin-1-yl)acetyl)piperidin-3-yl)-3-methoxybenzamide]
IC50 [1]: > 10 µM | IC50 [2]: < 0.05 µM | remaining activity at 0.3 µM [3]: < 60%

COc1cc(C(=O)NC2CCC(N(C)CC3CCN(c4ccc(C5CCC(=O)NC5=O)cc4F)CC3)CC2)ccc1Nc1ncc2c(n1)N(C1CCCC1)CC(F)(F)C(=O)N2C (stereo not drawn) [Compound 7, 4-((9-cyclopentyl-7,7-difluoro-5-methyl-6-oxo-6,7,8,9-tetrahydro-5H-pyrimido[4,5-b][1,4]diazepin-2-yl)amino)-N-((1r,4r)-4-(((1-(4-(2,6-dioxopiperidin-3-yl)-2-fluorophenyl)piperidin-4-yl)methyl)(methyl)amino)cyclohexyl)-3-methoxybenzamide]
IC50 [1]: > 10 µM | IC50 [2]: < 0.03 µM | remaining activity at 0.3 µM [3]: < 30%

COc1cc(C(=O)NC2CCN(C(=O)CC3CCN(c4ccc(C5CCC(=O)NC5=O)cc4F)CC3)CC2)ccc1Nc1ncc2c(n1)N(C1CCCC1)CC(F)(F)C(=O)N2C (stereo not drawn) [Compound 10, 4-((9-cyclopentyl-7,7-difluoro-5-methyl-6-oxo-6,7,8,9-tetrahydro-5H-pyrimido[4,5-b][1,4]diazepin-2-yl)amino)-N-(1-(2-(1-(4-(2,6-dioxopiperidin-3-yl)-2-fluorophenyl)piperidin-4-yl)acetyl)piperidin-4-yl)-3-methoxybenzamide]
IC50 [1]: > 10 µM | IC50 [2]: < 0.05 µM | remaining activity at 0.3 µM [3]: < 30%

COc1cc(C(=O)NC2CC3(CCN(CC4(C)CCN(c5ccc(C6CCC(=O)NC6=O)cc5F)CC4)CC3)C2)ccc1Nc1ncc2c(n1)N(C1CCCC1)CC(F)(F)C(=O)N2C (stereo not drawn) [Compound 26, 4-((9-cyclopentyl-7,7-difluoro-5-methyl-6-oxo-6,7,8,9-tetrahydro-5H-pyrimido[4,5-b][1,4]diazepin-2-yl)amino)-N-(7-((1-(4-(2,6-dioxopiperidin-3-yl)-2-fluorophenyl)-4-methylpiperidin-4-yl)methyl)-7-azaspiro[3.5]nonan-2-yl)-3-methoxybenzamide]
IC50 [1]: 5.59 µM | IC50 [2]: < 0.05 µM | remaining activity at 0.3 µM [3]: < 60%

COc1cc(C(=O)NN2CCC([C@H](C)CN3CCN(c4ccc(C5CCC(=O)NC5=O)cc4F)CC3)CC2)ccc1Nc1ncc2c(n1)N(C1CCCC1)CC(F)(F)C(=O)N2C (stereo partly drawn) [Compound 20, 4-((9-cyclopentyl-7,7-difluoro-5-methyl-6-oxo-6,7,8,9-tetrahydro-5H-pyrimido[4,5-b][1,4]diazepin-2-yl)amino)-N-(4-((2S)-1-(4-(4-(2,6-dioxopiperidin-3-yl)-2-fluorophenyl)piperazin-1-yl)propan-2-yl)piperidin-1-yl)-3-methoxybenzamide]
IC50 [1]: > 10 µM | IC50 [2]: < 0.05 µM | remaining activity at 0.3 µM [3]: < 30%

COc1cc(C(=O)NC2CCN(C(=O)CCN3CCN(c4ccc(C5CCC(=O)NC5=O)cc4F)CC3)CC2)ccc1Nc1ncc2c(n1)N(C1CCCC1)CC(F)(F)C(=O)N2C (stereo not drawn) [Compound 11, 4-((9-cyclopentyl-7,7-difluoro-5-methyl-6-oxo-6,7,8,9-tetrahydro-5H-pyrimido[4,5-b][1,4]diazepin-2-yl)amino)-N-(1-(3-(4-(4-(2,6-dioxopiperidin-3-yl)-2-fluorophenyl)piperazin-1-yl)propanoyl)piperidin-4-yl)-3-methoxybenzamide]
IC50 [1]: > 10 µM | IC50 [2]: < 0.03 µM | remaining activity at 0.3 µM [3]: < 30%

COc1cc(C(=O)NC2CCN(C(=O)CCN3CCN(c4ccnc(C5CCC(=O)NC5=O)c4)CC3)CC2)ccc1Nc1ncc2c(n1)N(C1CCCC1)CC(F)(F)C(=O)N2C (stereo not drawn) [Compound 37, 4-((9-cyclopentyl-7,7-difluoro-5-methyl-6-oxo-6,7,8,9-tetrahydro-5H-pyrimido[4,5-b][1,4]diazepin-2-yl)amino)-N-(1-(3-(4-(2-(2,6-dioxopiperidin-3-yl)pyridin-4-yl)piperazin-1-yl)propanoyl)piperidin-4-yl)-3-methoxybenzamide]
IC50 [1]: > 10 µM | IC50 [2]: < 0.05 µM | remaining activity at 0.3 µM [3]: < 60%

COc1cc(C(=O)NC2CCN(C(=O)CCCOc3ccc(C4CCC(=O)NC4=O)cc3)CC2)c(F)cc1Nc1ncc2c(n1)N(C1CCCC1)CC(F)(F)C(=O)N2C (stereo not drawn) [Compound 3, 4-((9-cyclopentyl-7,7-difluoro-5-methyl-6-oxo-6,7,8,9-tetrahydro-5H-pyrimido[4,5-b][1,4]diazepin-2-yl)amino)-N-(1-(4-(4-(2,6-dioxopiperidin-3-yl)phenoxy)butanoyl)piperidin-4-yl)-2-fluoro-5-methoxybenzamide]
IC50 [1]: > 10 µM | IC50 [2]: < 0.1 µM | remaining activity at 0.3 µM [3]: < 60%

COc1cc(C(=O)NCC2CCN(CC3CCN(c4ccc(C5CCC(=O)NC5=O)cc4F)CC3)CC2)ccc1Nc1ncc2c(n1)N(C1CCCC1)CC(F)(F)C(=O)N2C (stereo not drawn) [Compound 22, 4-((9-cyclopentyl-7,7-difluoro-5-methyl-6-oxo-6,7,8,9-tetrahydro-5H-pyrimido[4,5-b][1,4]diazepin-2-yl)amino)-N-((1-((1-(4-(2,6-dioxopiperidin-3-yl)-2-fluorophenyl)piperidin-4-yl)methyl)piperidin-4-yl)methyl)-3-methoxybenzamide]
IC50 [1]: > 10 µM | IC50 [2]: < 0.03 µM | remaining activity at 0.3 µM [3]: < 30%

COc1cc(C(=O)NC2CC3(CCN(CC4CCN(c5ccc(C6CCC(=O)NC6=O)cc5)CC4)CC3)C2)ccc1Nc1ncc2c(n1)N(C1CCCC1)CC(F)(F)C(=O)N2C (stereo not drawn) [Compound 16, 4-((9-cyclopentyl-7,7-difluoro-5-methyl-6-oxo-6,7,8,9-tetrahydro-5H-pyrimido[4,5-b][1,4]diazepin-2-yl)amino)-N-(7-((1-(4-(2,6-dioxopiperidin-3-yl)phenyl)piperidin-4-yl)methyl)-7-azaspiro[3.5]nonan-2-yl)-3-methoxybenzamide]
IC50 [1]: 9.12 µM | IC50 [2]: < 0.03 µM | remaining activity at 0.3 µM [3]: < 30%

COc1cc(C(=O)NC2CCN(C(=O)CCCOc3cccc(C4CCC(=O)NC4=O)n3)CC2)ccc1Nc1ncc2c(n1)N(C1CCCC1)CC(F)(F)C(=O)N2C (stereo not drawn) [Compound 35, 4-((9-cyclopentyl-7,7-difluoro-5-methyl-6-oxo-6,7,8,9-tetrahydro-5H-pyrimido[4,5-b][1,4]diazepin-2-yl)amino)-N-(1-(4-((6-(2,6-dioxopiperidin-3-yl)pyridin-2-yl)oxy)butanoyl)piperidin-4-yl)-3-methoxybenzamide]
IC50 [1]: > 10 µM | IC50 [2]: < 0.05 µM | remaining activity at 0.3 µM [3]: < 60%

COc1cc(C(=O)NC2CC3(CCN(CC4CCN(c5ccc(C6CCC(=O)NC6=O)nc5)CC4)CC3)C2)ccc1Nc1ncc2c(n1)N(C1CCCC1)CC(F)(F)C(=O)N2C (stereo not drawn) [Compound 39, 4-((9-cyclopentyl-7,7-difluoro-5-methyl-6-oxo-6,7,8,9-tetrahydro-5H-pyrimido[4,5-b][1,4]diazepin-2-yl)amino)-N-(7-((1-(6-(2,6-dioxopiperidin-3-yl)pyridin-3-yl)piperidin-4-yl)methyl)-7-azaspiro[3.5]nonan-2-yl)-3-methoxybenzamide]
IC50 [1]: > 10 µM | IC50 [2]: < 0.03 µM | remaining activity at 0.3 µM [3]: < 60%
